The term pIC50 denotes −log10 of the IC50, conventionally taken in molar units.

Our source for the IC50 values is US20260028365A1 (BIOGEN MA INC., priority 2022, published 2026).

Molecules are shown by their SMILES. pIC50: −log10 of the molar value. Like-named read-outs stand apart in the source and are kept apart here.

Test [1] has as its target Tyk2 (Homo sapiens (Human), UniProt P29597). In words: pSTAT4 Cell Assay (MSD, NK92 cells). The class given is cell-based.
For test [2], the target named is JH2 domain of human Tyk2 (Homo sapiens (Human), UniProt P29597). In words: JH2 Biochemical Assay (TR-FRET probe displacement). The format is binding.
JH2 domain of human Tyk2, sequence (P29597 575-876): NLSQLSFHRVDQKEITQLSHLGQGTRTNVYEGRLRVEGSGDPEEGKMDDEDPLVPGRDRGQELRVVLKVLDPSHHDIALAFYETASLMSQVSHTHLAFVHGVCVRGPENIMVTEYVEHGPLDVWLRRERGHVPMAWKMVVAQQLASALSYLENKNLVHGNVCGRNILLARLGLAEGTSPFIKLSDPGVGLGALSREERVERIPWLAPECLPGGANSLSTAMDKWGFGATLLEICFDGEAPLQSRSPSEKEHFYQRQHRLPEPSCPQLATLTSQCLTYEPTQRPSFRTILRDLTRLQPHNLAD
The mark [3] stands for this setting: JH2 domain of human Tyk2, TR-FRET probe displacement.
Setting [4] is: TR-FRET probe displacement, JH2 domain of human Tyk2.
Where [5] appears, read: TR-FRET probe displacement, JH2 domain.

Tyk2, sequence (P29597 whole entry, the tested form may be a part): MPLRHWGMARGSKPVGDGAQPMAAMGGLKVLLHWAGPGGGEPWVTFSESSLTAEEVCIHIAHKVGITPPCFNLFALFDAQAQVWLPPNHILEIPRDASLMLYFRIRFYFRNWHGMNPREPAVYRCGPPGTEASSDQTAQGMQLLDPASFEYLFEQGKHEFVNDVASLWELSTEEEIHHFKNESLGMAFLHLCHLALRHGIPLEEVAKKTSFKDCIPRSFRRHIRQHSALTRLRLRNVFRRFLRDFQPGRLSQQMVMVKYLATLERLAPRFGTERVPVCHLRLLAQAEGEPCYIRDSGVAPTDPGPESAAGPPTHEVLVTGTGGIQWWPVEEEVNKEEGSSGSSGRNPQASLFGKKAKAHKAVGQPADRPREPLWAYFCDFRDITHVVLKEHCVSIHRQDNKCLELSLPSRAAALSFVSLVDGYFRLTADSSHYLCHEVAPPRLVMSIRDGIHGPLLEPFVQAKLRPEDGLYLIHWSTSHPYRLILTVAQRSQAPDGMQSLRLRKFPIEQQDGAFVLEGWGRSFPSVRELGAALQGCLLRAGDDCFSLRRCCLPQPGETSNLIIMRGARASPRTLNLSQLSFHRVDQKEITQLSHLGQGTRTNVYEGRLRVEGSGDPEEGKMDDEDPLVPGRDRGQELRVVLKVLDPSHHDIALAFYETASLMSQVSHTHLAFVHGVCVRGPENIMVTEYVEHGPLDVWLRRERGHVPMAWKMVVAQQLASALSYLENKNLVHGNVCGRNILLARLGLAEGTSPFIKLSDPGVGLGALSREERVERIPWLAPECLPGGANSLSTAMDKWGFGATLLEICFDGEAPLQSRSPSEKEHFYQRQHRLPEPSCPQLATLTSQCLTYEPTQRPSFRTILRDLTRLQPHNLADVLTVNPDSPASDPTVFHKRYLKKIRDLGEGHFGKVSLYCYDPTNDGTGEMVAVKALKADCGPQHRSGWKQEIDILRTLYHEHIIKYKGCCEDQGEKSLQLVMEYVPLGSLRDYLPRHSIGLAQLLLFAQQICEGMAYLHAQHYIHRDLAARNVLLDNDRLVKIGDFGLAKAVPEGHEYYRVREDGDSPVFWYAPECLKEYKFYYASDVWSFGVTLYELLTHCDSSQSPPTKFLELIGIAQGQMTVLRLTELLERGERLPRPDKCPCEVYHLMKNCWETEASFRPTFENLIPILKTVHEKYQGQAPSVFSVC

For `CC(=O)Nc1cc(Nc2cc(C)nc(C(C)(F)F)n2)c(-c2ccc([C@H]3CN(C)CCO3)cn2)cn1` (single isomer, unassigned) [Example 644, (S)-N-(4′-((2-(1,1-difluoroethyl)-6-methylpyrimidin-4-yl)amino)-5-(4-methylmorpholin-2-yl)-[2,3′-bipyridin]-6′-yl)acetamide or (R)-N-(4′-((2-(1,1-difluoroethyl)-6-methylpyrimidin-4-yl)amino)-5-(4-methylmorpholin-2-yl)-[2,3′-bipyridin]-6′-yl)acetamide], the pIC50 in test [1] (MSD) and in test [2] (setting [3]) was at least 8.00 each time.
Regarding `COc1nc(C)cc(-c2cnc(NC(C)=O)cc2Nc2cc(C)nc(C(C)(F)F)n2)n1` [Example 156, N-(4-((2-(1,1-difluoroethyl)-6-methylpyrimidin-4-yl)amino)-5-(2-methoxy-6-methylpyrimidin-4-yl)pyridin-2-yl)acetamide], the pIC50 in test [1] (MSD) and in test [2] (setting [4]) was at least 8.00 in each case.
For the compound `CCOc1cnc(NC(C)=O)cc1Nc1cc(O[C@H]2C[C@@H](F)C2)nc(C(C)(F)F)n1` [Example 458, N-(4-((2-(1,1-difluoroethyl)-6-((1s,3s)-3-fluorocyclobutoxy)pyrimidin-4-yl)amino)-5-ethoxypyridin-2-yl)acetamide], the pIC50 in test [1] (MSD) and in test [2] (setting [3]) was at least 8.00 each time.
On to `CC(=O)Nc1cc(Nc2cc(C)nc(C(C)(F)F)n2)c(OCc2cncc(F)c2)cn1` [Example 474, N-(4-((2-(1,1-difluoroethyl)-6-methylpyrimidin-4-yl)amino)-5-((5-fluoropyridin-3-yl)methoxy)pyridin-2-yl)acetamide], for which the values for the negative logarithm of the IC50 (pIC50) in test [1] (MSD) and in test [2] (setting [3]) were 7.00 to 8.00 and at least 8.00, respectively.
Take `CC(=O)Nc1cc(Nc2cc(C)nc(C(C)(F)F)n2)c(-c2cc(C(C)C)ncn2)cn1` [Example 245, N-(4-((2-(1,1-difluoroethyl)-6-methylpyrimidin-4-yl)amino)-5-(6-isopropylpyrimidin-4-yl)pyridin-2-yl)acetamide]: the pIC50 in test [1] (MSD) is 7.00 to 8.00; in test [2] (setting [4]), at least 8.00.
In the same order, the values of `CCOc1cnc(NC(C)=O)cc1Nc1cc(-c2cnn(CCN(C)C)c2)nc(C(C)(F)F)n1` [Example 308, N-(4-((2-(1,1-difluoroethyl)-6-(1-(2-(dimethylamino)ethyl)-1H-pyrazol-4-yl)pyrimidin-4-yl)amino)-5-ethoxypyridin-2-yl)acetamide] are 7.00 to 8.00 and at least 8.00.
Consider `CCc1cc(Nc2cc(NC(C)=O)ncc2-c2cnc(CN3CCCC3)cn2)nc(C(C)(F)F)n1` [Example 893, N-(4-((2-(1,1-difluoroethyl)-6-ethylpyrimidin-4-yl)amino)-5-(5-(pyrrolidin-1-ylmethyl)pyrazin-2-yl)pyridin-2-yl)acetamide], for which the pIC50 in test [1] and in test [2] (setting [5]) was at least 8.00 in each case.
On to `CCc1cc(Nc2cc(NC(C)=O)ncc2-c2ccnc(COC)n2)nc(C(C)(F)F)n1` [Example 720, N-(4-((2-(1,1-difluoroethyl)-6-ethylpyrimidin-4-yl)amino)-5-(2-(methoxymethyl)pyrimidin-4-yl)pyridin-2-yl)acetamide], for which the pIC50 in test [1] (MSD) and in test [2] (setting [3]) was at least 8.00 each time.
With `CC(=O)Nc1cc(Nc2ccnc(C(C)(F)F)n2)c(-c2cnc(N3CC4(CCOC4)C3)cn2)cn1` [Example 872, N-(5-(5-(6-oxa-2-azaspiro[3.4]octan-2-yl)pyrazin-2-yl)-4-((2-(1,1-difluoroethyl)pyrimidin-4-yl)amino)pyridin-2-yl)acetamide], the pIC50 was 7.00 to 8.00 in test [1] and at least 8.00 in test [2] (setting [5]).
The matching figures for `CCc1cc(Nc2cc(NC(C)=O)ncc2-c2ccncn2)nc(C(C)(C)F)n1` [Example 801, N-(4-((6-ethyl-2-(2-fluoropropan-2-yl)pyrimidin-4-yl)amino)-5-(pyrimidin-4-yl)pyridin-2-yl)acetamide]: at least 8.00 and at least 8.00.
In the case of `CO[C@H]1C[C@@H](Oc2cc(Nc3cc(NC(C)=O)ncc3-c3ccn(C)n3)nc(C(C)(F)F)c2)C1` [Example 211, N-(4-((6-(1,1-difluoroethyl)-4-((1s,3s)-3-methoxycyclobutoxy)pyridin-2-yl)amino)-5-(1-methyl-1H-pyrazol-3-yl)pyridin-2-yl)acetamide], the pIC50 in test [1] (MSD) and in test [2] (setting [4]) was at least 8.00 throughout.
Regarding `CC(=O)Nc1cc(Nc2cc(C)nc(C(C)(F)F)n2)c(-c2ccc([C@@H]3CN(C)CCO3)cn2)cn1` (single isomer, unassigned) [Example 643, (R)-N-(4′-((2-(1,1-difluoroethyl)-6-methylpyrimidin-4-yl)amino)-5-(4-methylmorpholin-2-yl)-[2,3′-bipyridin]-6′-yl)acetamide or (S)-N-(4′-((2-(1,1-difluoroethyl)-6-methylpyrimidin-4-yl)amino)-5-(4-methylmorpholin-2-yl)-[2,3′-bipyridin]-6′-yl)acetamide], the pIC50 in test [1] (MSD) and in test [2] (setting [3]) was at least 8.00 each time.
As to `CC(=O)Nc1cc(Nc2cccc(C(C)(C)F)n2)c(-c2ncc(F)cn2)cn1` [Example 215, N-(4-((6-(2-fluoropropan-2-yl)pyridin-2-yl)amino)-5-(5-fluoropyrimidin-2-yl)pyridin-2-yl)acetamide], the pIC50 in test [1] (MSD) was 7.00 to 8.00; in test [2] (setting [4]), at least 8.00.
In the same order, the values of `COCCN(C)c1cncc(-c2cnc(NC(C)=O)cc2Nc2ccnc(C(C)(F)F)n2)n1` [Example 275, N-(4-((2-(1,1-difluoroethyl)pyrimidin-4-yl)amino)-5-(6-((2-methoxyethyl)(methyl)amino)pyrazin-2-yl)pyridin-2-yl)acetamide] are 6.00 to 7.00 and at least 8.00.
In the same order, the values of `CC(=O)Nc1cc(Nc2cc(C)nc(C(C)(F)F)n2)c(OCC23COCC(C2)C3)cn1` [Example 324, N-(5-((3-oxabicyclo[3.1.1]heptan-1-yl)methoxy)-4-((2-(1,1-difluoroethyl)-6-methylpyrimidin-4-yl)amino)pyridin-2-yl)acetamide] are 7.00 to 8.00 and at least 8.00.
Turning to `CCc1cc(Nc2cc(NC(C)=O)ncc2OCCCF)nc(C(C)(F)F)n1` [Example 405, N-(4-((2-(1,1-difluoroethyl)-6-ethylpyrimidin-4-yl)amino)-5-(3-fluoropropoxy)pyridin-2-yl)acetamide], the pIC50 was 7.00 to 8.00 in test [1] (MSD) and at least 8.00 in test [2] (setting [3]).
In the case of `COc1cc(-c2cnc(NC(C)=O)cc2Nc2cc(C)nc(C(C)(C)F)n2)ncn1` [Example 196, N-(4-((2-(2-fluoropropan-2-yl)-6-methylpyrimidin-4-yl)amino)-5-(6-methoxypyrimidin-4-yl)pyridin-2-yl)acetamide], the pIC50 is 7.00 to 8.00 in test [1] (MSD) and at least 8.00 in test [2] (setting [4]).
For the compound `CC(=O)Nc1cc(Nc2ccnc(C(C)(F)F)n2)c(-c2cncc(CC#N)n2)cn1` [Example 688, N-(5-(6-(cyanomethyl)pyrazin-2-yl)-4-((2-(1,1-difluoroethyl)pyrimidin-4-yl)amino)pyridin-2-yl)acetamide], the pIC50 in test [1] (MSD) was 6.00 to 7.00; in test [2] (setting [3]), at least 8.00.
Take `COc1cc(Nc2cc(NC(C)=O)ncc2-c2ncc(F)cn2)nc(C(C)(F)F)n1` [Example 192, N-(4-((2-(1,1-difluoroethyl)-6-methoxypyrimidin-4-yl)amino)-5-(5-fluoropyrimidin-2-yl)pyridin-2-yl)acetamide]: the values for the pIC50 in test [1] (MSD) and in test [2] (setting [4]) were 7.00 to 8.00 and at least 8.00, respectively.
With `CC(=O)Nc1cc(Nc2cccc(C(C)(F)F)n2)c(OCCO)cn1` [Example 140, N-(4-((6-(1,1-difluoroethyl)pyridin-2-yl)amino)-5-(2-hydroxyethoxy)pyridin-2-yl)acetamide], the pIC50 in test [1] (MSD) and in test [2] (setting [4]) was at least 8.00 in each case.
`COc1cnc(NC(C)=O)cc1Nc1cc(-c2ccc3nc(C)cn3n2)nc(C(C)(F)F)n1` [Example 399, N-(4-((2-(1,1-difluoroethyl)-6-(2-methylimidazo[1,2-b]pyridazin-6-yl)pyrimidin-4-yl)amino)-5-methoxypyridin-2-yl)acetamide]: the values for the pIC50 in test [1] (MSD) and in test [2] (setting [3]) were 7.00 to 8.00 and at least 8.00, respectively.
As for `CC(=O)Nc1cc(Nc2ccnc(C(C)(F)F)n2)c(-c2ccn(C)n2)cn1` [Example 202, N-(4-((2-(1,1-difluoroethyl)pyrimidin-4-yl)amino)-5-(1-methyl-1H-pyrazol-3-yl)pyridin-2-yl)acetamide], the negative-log IC50 (pIC50) in test [1] (MSD) and in test [2] (setting [4]) was at least 8.00 throughout.
Turning to `CCOc1cnc(NC(C)=O)cc1Nc1cc(-c2cnn(CC(F)(F)F)c2)nc(C(C)(F)F)n1` [Example 309, N-(4-((2-(1,1-difluoroethyl)-6-(1-(2,2,2-trifluoroethyl)-1H-pyrazol-4-yl)pyrimidin-4-yl)amino)-5-ethoxypyridin-2-yl)acetamide], the pIC50 was 7.00 to 8.00 in test [1] (MSD) and at least 8.00 in test [2] (setting [4]).
In the case of `CC(=O)Nc1cc(Nc2ccnc(C(C)(F)F)n2)c(-c2ccn(CC3CC3)n2)cn1` [Example 704, N-(5-(1-(cyclopropylmethyl)-1H-pyrazol-3-yl)-4-((2-(1,1-difluoroethyl)pyrimidin-4-yl)amino)pyridin-2-yl)acetamide], the pIC50 in test [1] (MSD) and in test [2] (setting [3]) was at least 8.00 throughout.
In the case of `CC(=O)Nc1cc(Nc2cc(C)nc(C(C)(F)F)n2)c(-c2ncc(C#N)cc2F)cn1` [Example 632, N-(5-cyanO4′-((2-(1,1-difluoroethyl)-6-methylpyrimidin-4-yl)amino)-3-fluorO[2,3′-bipyridin]-6′-yl)acetamide], the pIC50 is at most 6.00 in test [1] (MSD) and 7.00 to 8.00 in test [2] (setting [3]).
The matching figures for `CCn1ccc(-c2cnc(NC(C)=O)cc2Nc2cc(C)nc(C(C)(F)F)n2)n1` [Example 613, N-(4-((2-(1,1-difluoroethyl)-6-methylpyrimidin-4-yl)amino)-5-(1-ethyl-1H-pyrazol-3-yl)pyridin-2-yl)acetamide]: at least 8.00 and at least 8.00.
The matching figures for `CO[C@H]1CC[C@@H](Oc2cnc(NC(C)=O)cc2Nc2cc(C)nc(C(C)(F)F)n2)C1` [Example 513, N-(4-((2-(1,1-difluoroethyl)-6-methylpyrimidin-4-yl)amino)-5-(((1R,3S)-3-methoxycyclopentyl)oxy)pyridin-2-yl)acetamide]: 7.00 to 8.00 and at least 8.00.
